The values that follow come from BindingDB's records for doi:10.1016/j.bmcl.2004.02.025 (Universidade Federal De Minas Gerais, 2004).

A short description of experiment [1]: Inhibitory concentration against glyceraldehyde-3-phosphate dehydrogenase was determined as log 1/IC50.
Experiment [2] can be described thus: Inhibitory concentration of compound against glyceraldehyde-3-phosphate dehydrogenase was determined.
The nature of experiment [3]: Inhibitory concentration against glyceraldehyde-3-phosphate dehydrogenase was determined as log 1/IC50. The source holds these as a separate data set.

The IC50 is the midpoint of a concentration-inhibition curve. A low value points to greater potency. Regarding `O=c1oc2ccccc2cc1-c1ccc(O)cc1` [3-(4-Hydroxy-phenyl)-chromen-2-one], the IC50 in experiment [1] was found to be 38.9 µM. For `COc1cccc(C(=O)NC2C(O)[C@@H](COP(=O)([O-])OP(=O)(O)OC[C@H]3O[C@@H]([n+]4ccc(C(N)=O)cc4)C(O)C3O)O[C@H]2n2cnc3c(NCc4cccc5ccccc45)ncnc32)c1` (some centres undefined) [Adenosine analogue], in experiment [2], the IC50 was 0.1 µM.

`COc1cc2ccc(=O)oc2cc1O` [7-hydroxy-6-methoxy-2H-chromen-2-one] yielded a half-inhibitory concentration (IC50) in experiment [1] of 257 µM.

In turn, `COc1c2c(cc3oc(=O)ccc13)OCC2` had an IC50 in experiment [1] of 347 µM. On the same count and under the same terms, under `O=c1oc2c(O)cccc2cc1-c1ccc2c(c1)OCO2` stands 30.9 µM.

Turning to `O=c1oc2ccccc2cc1-c1cccc(O)c1`, in experiment [1], half-maximal inhibition (IC50) was put at 67.6 µM. `CC(=O)Oc1cccc(-c2cc3cc(OC(C)=O)ccc3oc2=O)c1` registered an IC50 in experiment [1] of 17 µM. With `C=C(C)[C@H]1Cc2cc3ccc(=O)oc3cc2O1`, the half-maximal inhibitory concentration (IC50) in experiment [1] was 145 µM. Turning to `CC1=C2c3c(ccc4ccc(=O)oc34)OCC2OC1=O` (centres undefined), the 50% inhibitory concentration (IC50) in experiment [1] turned out to be 74.1 µM. Still for that read-out and setting: in the case of `CC(=O)Oc1ccc2oc(=O)c(-c3ccccc3)cc2c1` it was 123 µM. As to `C=C(C)[C@@H]1Cc2c(cc(O)c3ccc(=O)oc23)O1`, the half-inhibitory concentration (IC50) in experiment [1] came to 191 µM.

Turning to `COc1cccc(C(=O)NC2C(O)[C@@H](COP(=O)(O)O)O[C@H]2n2cnc3c(NCc4cccc5ccccc45)ncnc32)c1` (stereo partly drawn) [Phosphoric acid mono-((2R,5R)-3-hydroxy-4-(3-methoxy-benzoylamino)-5-{6-[(naphthalen-1-ylmethyl)-amino]-purin-9-yl}-tetrahydro-furan-2-ylmethyl) ester], the IC50 in experiment [2] was 5 µM. In experiment [1], `C=CC(C)(C)c1cc2ccc(O)cc2oc1=O` returned an IC50 of 162 µM. Same read-out and setting: under `O=c1oc2ccc(/N=C/c3ccco3)cc2cc1-c1ccc2c(c1)OCO2` stands 56.2 µM. The compound `CC1(C)C=Cc2c(ccc3ccc(=O)oc23)O1` registered a half-maximal inhibitory concentration (IC50) in experiment [1] of 123 µM. `CCOC(=O)c1cn([C@@H]2O[C@H](COC(=O)c3ccccc3)[C@@H](OC(=O)c3ccccc3)[C@H]2OC(=O)c2ccccc2)c2ccc(Cl)cc2c1=O`: in experiment [2], the IC50 is 29 µM. Regarding `O=c1ccc2ccc(O)cc2o1` [umbelliferone], the IC50 in experiment [1] turned out to be 617 µM. Regarding `COc1cccc(-c2cc3cc(OC(C)=O)ccc3oc2=O)c1`, in experiment [1], it took 85.1 µM to reach half-maximal inhibition (IC50). The same measure, in the same setting: in the case of `CC1(C)C=Cc2cc3ccc(=O)oc3cc2O1` [8,8-Dimethyl-8H-pyrano[3,2-g]chromen-2-one] it was 195 µM. Regarding `COc1cccc(C(=O)NC2C(O)[C@@H](CO)O[C@H]2n2cnc3c(NCc4cccc5ccccc45)ncnc32)c1` (stereo partly drawn) [N-((2R,5R)-4-Hydroxy-5-hydroxymethyl-2-{6-[(naphthalen-1-ylmethyl)-amino]-purin-9-yl}-tetrahydro-furan-3-yl)-3-methoxy-benzamide], in experiment [2], half-maximal inhibition (IC50) required 12 µM. `CC(=O)Oc1ccc(-c2cc3cc(OC(C)=O)c(OC(C)=O)cc3oc2=O)cc1OC(C)=O` [6,7-diacetoxy-3-[30,40-diacetoxyphenyl]-coumarin]: in experiment [1], the IC50 came to 17.8 µM. Compound `C=C(C)[C@H]1O[C@@H]1c1c(O)ccc2ccc(=O)oc12` came in with an IC50 in experiment [1] of 129 µM. On to `COc1ccc(-n2nc3c4ccccc4n([C@@H]4O[C@H](COC(=O)c5ccccc5)[C@@H](OC(=O)c5ccccc5)[C@H]4OC(=O)c4ccccc4)cc-3c2=O)cc1` [Adenosine analogue], for which 45 µM corresponded to half-maximal inhibition in experiment [2] (IC50). In experiment [1], `CC(=O)Oc1ccc(-c2cc3cc(OC(C)=O)ccc3oc2=O)cc1` had an IC50 of 52.5 µM. In experiment [1], `O=c1oc2ccc(/N=C/c3ccc[nH]3)cc2cc1-c1ccc2c(c1)OCO2` came in with an IC50 of 56.2 µM. On the same count and under the same terms, in the case of `COc1ccc2ccc(=O)oc2c1CC=C(C)C` [osthole] it was 209 µM. Still for that read-out and setting: under `CC(=O)Oc1ccc2oc(=O)c(-c3ccc4c(c3)OCO4)cc2c1` stands 64.6 µM. In experiment [3], `C=CC(C)(C)c1cc2cc3c(cc2oc1=O)O[C@H](C(C)(C)O)C3` [Chalepin] yielded an IC50 of 55 µM. In turn, `O=c1ccc2ccccc2o1` [2H-chromen-2-one] gave an IC50 in experiment [1] of 692 µM.
